Columns and labels:
Experiment in all cases: relative viability (nuclei count vs DMSO), 5 days (fraction); higher = more cells survive
[1] = compound: Cc1ccc2nc(NCCN)c3ncc(C)n3c2c1 + O=C(c1cc(Cc2n[nH]c(=O)c3ccccc23)ccc1F)N1CCN(C(=O)C2CC2)CC1 [Olaparib] (partner 8 µM)
How it was run: (§1)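 Medians of duplicate plates are given as relative viability. That measure is the nuclei count in treated wells divided by the count in vehicle wells. Counts were taken on 4× images of lung cancer cell lines in 1536-well plates, 5 days after pin-tool dosing the day after seeding with one drug alone or a fixed anchor-drug dose plus five library-drug doses (not always all listed) in √10 steps.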

[2] = compound: Cc1ccc2nc(NCCN)c3ncc(C)n3c2c1 + Nc1nc2[nH]cc(CCc3ccc(C(=O)N[C@@H](CCC(=O)O)C(=O)O)cc3)c2c(=O)[nH]1 [Pemetrexed] (partner 0.2 µM)
How it was run: as §1

Salubrinal + Vorinostat = compound: O=C(/C=C/c1ccccc1)NC(NC(=S)Nc1cccc2cccnc12)C(Cl)(Cl)Cl [Salubrinal] + O=C(CCCCCCC(=O)Nc1ccccc1)NO [Vorinostat] (partner 1 µM)
How it was run: as §1

Salubrinal + Pictilisib = compound: O=C(/C=C/c1ccccc1)NC(NC(=S)Nc1cccc2cccnc12)C(Cl)(Cl)Cl [Salubrinal] + CS(=O)(=O)N1CCN(Cc2cc3nc(-c4cccc5[nH]ncc45)nc(N4CCOCC4)c3s2)CC1 [Pictilisib] (partner 1 µM)
How it was run: as §1

For HCC-78, the relative viability ([1]; first compound 0.04 µM) was 0.746, the relative viability ([1]; first compound 0.1265 µM) was 0.861 and the relative viability ([1]; first compound 0.4 µM) was 0.655. For the same cell line, the relative viability ([1]; first compound 1.265 µM) was 0.587, the relative viability ([1]; first compound 4 µM) was 0.766 and the relative viability ([2]; first compound 0.04 µM) was 0.935. For the same cell line, the relative viability ([2]; first compound 0.1265 µM) was 0.791, the relative viability ([2]; first compound 0.4 µM) was 0.904 and the relative viability ([2]; first compound 1.265 µM) was 0.839. It also gave a relative viability ([2]; first compound 4 µM) of 0.922, a relative viability (Salubrinal + Vorinostat; first compound 0.08 µM) of 0.473 and a relative viability (Salubrinal + Vorinostat; first compound 0.253 µM) of 0.446. For the same cell line, the relative viability (Salubrinal + Vorinostat; first compound 0.8 µM) was 0.472, the relative viability (Salubrinal + Vorinostat; first compound 2.53 µM) was 0.451 and the relative viability (Salubrinal + Vorinostat; first compound 8 µM) was 0.441. For the same cell line, the relative viability (Salubrinal + Pictilisib; first compound 0.08 µM) was 0.195, the relative viability (Salubrinal + Pictilisib; first compound 0.253 µM) was 0.0891 and the relative viability (Salubrinal + Pictilisib; first compound 0.8 µM) was 0.312. For the same cell line, the relative viability (Salubrinal + Pictilisib; first compound 2.53 µM) was 0.232 and the relative viability (Salubrinal + Pictilisib; first compound 8 µM) was 0.229.

For HCC-366, the relative viability ([1]; first compound 0.04 µM) was 0.388, the relative viability ([1]; first compound 0.1265 µM) was 0.394 and the relative viability ([1]; first compound 0.4 µM) was 0.36. It also gave a relative viability ([1]; first compound 1.265 µM) of 0.352, a relative viability ([1]; first compound 4 µM) of 0.366 and a relative viability ([2]; first compound 0.04 µM) of 0.157. It also gave a relative viability ([2]; first compound 0.1265 µM) of 0.202, a relative viability ([2]; first compound 0.4 µM) of 0.146 and a relative viability ([2]; first compound 1.265 µM) of 0.126. The relative viability ([2]; first compound 4 µM) was 0.165, the relative viability (Salubrinal + Vorinostat; first compound 0.08 µM) was 0.494 and the relative viability (Salubrinal + Vorinostat; first compound 0.8 µM) was 0.443. For the same cell line, the relative viability (Salubrinal + Vorinostat; first compound 2.53 µM) was 0.364, the relative viability (Salubrinal + Vorinostat; first compound 8 µM) was 0.345 and the relative viability (Salubrinal + Pictilisib; first compound 0.08 µM) was 0.132. The relative viability (Salubrinal + Pictilisib; first compound 0.253 µM) was 0.143, the relative viability (Salubrinal + Pictilisib; first compound 0.8 µM) was 0.121 and the relative viability (Salubrinal + Pictilisib; first compound 2.53 µM) was 0.151. For the same cell line, the relative viability (Salubrinal + Pictilisib; first compound 8 µM) was 0.179.

Cell Line HCC-827 has a relative viability ([1]; first compound 0.04 µM) of 0.689, a relative viability ([1]; first compound 0.1265 µM) of 0.73 and a relative viability ([1]; first compound 0.4 µM) of 0.661. The relative viability ([1]; first compound 1.265 µM) was 0.639, the relative viability ([1]; first compound 4 µM) was 0.607 and the relative viability ([2]; first compound 0.04 µM) was 0.261. For the same cell line, the relative viability ([2]; first compound 0.1265 µM) was 0.242, the relative viability ([2]; first compound 0.4 µM) was 0.273 and the relative viability ([2]; first compound 1.265 µM) was 0.24. It also gave a relative viability ([2]; first compound 4 µM) of 0.266, a relative viability (Salubrinal + Vorinostat; first compound 0.08 µM) of 0.838 and a relative viability (Salubrinal + Vorinostat; first compound 0.253 µM) of 0.917. The relative viability (Salubrinal + Vorinostat; first compound 0.8 µM) was 0.965, the relative viability (Salubrinal + Vorinostat; first compound 2.53 µM) was 0.788 and the relative viability (Salubrinal + Vorinostat; first compound 8 µM) was 0.785. For the same cell line, the relative viability (Salubrinal + Pictilisib; first compound 0.08 µM) was 0.959, the relative viability (Salubrinal + Pictilisib; first compound 0.253 µM) was 1.02 and the relative viability (Salubrinal + Pictilisib; first compound 0.8 µM) was 1.06. It also gave a relative viability (Salubrinal + Pictilisib; first compound 2.53 µM) of 0.994 and a relative viability (Salubrinal + Pictilisib; first compound 8 µM) of 0.898.

HOP-62 showed a relative viability ([1]; first compound 0.04 µM) of 0.286, a relative viability ([1]; first compound 0.1265 µM) of 0.457 and a relative viability ([1]; first compound 0.4 µM) of 0.436. The relative viability ([1]; first compound 1.265 µM) was 0.417, the relative viability ([1]; first compound 4 µM) was 0.42 and the relative viability ([2]; first compound 0.04 µM) was 0.298. For the same cell line, the relative viability ([2]; first compound 0.1265 µM) was 0.303, the relative viability ([2]; first compound 0.4 µM) was 0.348 and the relative viability ([2]; first compound 1.265 µM) was 0.352. For the same cell line, the relative viability ([2]; first compound 4 µM) was 0.339, the relative viability (Salubrinal + Vorinostat; first compound 0.08 µM) was 0.657 and the relative viability (Salubrinal + Vorinostat; first compound 0.253 µM) was 0.498. The relative viability (Salubrinal + Vorinostat; first compound 0.8 µM) was 0.627, the relative viability (Salubrinal + Vorinostat; first compound 2.53 µM) was 0.563 and the relative viability (Salubrinal + Vorinostat; first compound 8 µM) was 0.616. For the same cell line, the relative viability (Salubrinal + Pictilisib; first compound 0.08 µM) was 0.509, the relative viability (Salubrinal + Pictilisib; first compound 0.253 µM) was 0.468 and the relative viability (Salubrinal + Pictilisib; first compound 0.8 µM) was 0.681. For the same cell line, the relative viability (Salubrinal + Pictilisib; first compound 2.53 µM) was 0.505 and the relative viability (Salubrinal + Pictilisib; first compound 8 µM) was 0.691.

With IA-LM the relative viability ([1]; first compound 0.04 µM) was 0.73, the relative viability ([1]; first compound 0.1265 µM) was 0.793 and the relative viability ([1]; first compound 0.4 µM) was 0.974. It also gave a relative viability ([1]; first compound 1.265 µM) of 0.795, a relative viability ([1]; first compound 4 µM) of 0.721 and a relative viability (Salubrinal + Vorinostat; first compound 0.08 µM) of 0.974. The relative viability (Salubrinal + Vorinostat; first compound 0.253 µM) was 0.645, the relative viability (Salubrinal + Vorinostat; first compound 0.8 µM) was 0.882 and the relative viability (Salubrinal + Vorinostat; first compound 2.53 µM) was 0.816. The relative viability (Salubrinal + Vorinostat; first compound 8 µM) was 1.03, the relative viability (Salubrinal + Pictilisib; first compound 0.08 µM) was 0.353 and the relative viability (Salubrinal + Pictilisib; first compound 0.253 µM) was 0.279. It also gave a relative viability (Salubrinal + Pictilisib; first compound 0.8 µM) of 0.357, a relative viability (Salubrinal + Pictilisib; first compound 2.53 µM) of 0.219 and a relative viability (Salubrinal + Pictilisib; first compound 8 µM) of 0.188.

For LC-2-ad, the relative viability ([1]; first compound 0.04 µM) was 0.729, the relative viability ([1]; first compound 0.1265 µM) was 0.743 and the relative viability ([1]; first compound 0.4 µM) was 0.71. The relative viability ([1]; first compound 1.265 µM) was 0.768, the relative viability ([1]; first compound 4 µM) was 0.71 and the relative viability ([2]; first compound 0.04 µM) was 0.303. It also gave a relative viability ([2]; first compound 0.1265 µM) of 0.276, a relative viability ([2]; first compound 0.4 µM) of 0.268 and a relative viability ([2]; first compound 1.265 µM) of 0.275. It also gave a relative viability ([2]; first compound 4 µM) of 0.291, a relative viability (Salubrinal + Vorinostat; first compound 0.08 µM) of 0.735 and a relative viability (Salubrinal + Vorinostat; first compound 0.253 µM) of 0.644. It also gave a relative viability (Salubrinal + Vorinostat; first compound 0.8 µM) of 0.692, a relative viability (Salubrinal + Vorinostat; first compound 2.53 µM) of 0.651 and a relative viability (Salubrinal + Vorinostat; first compound 8 µM) of 0.665. It also gave a relative viability (Salubrinal + Pictilisib; first compound 0.08 µM) of 0.457, a relative viability (Salubrinal + Pictilisib; first compound 0.253 µM) of 0.448 and a relative viability (Salubrinal + Pictilisib; first compound 0.8 µM) of 0.519. It also gave a relative viability (Salubrinal + Pictilisib; first compound 2.53 µM) of 0.385 and a relative viability (Salubrinal + Pictilisib; first compound 8 µM) of 0.323.

LCLC-97TM1 was tested, and the relative viability ([1]; first compound 0.04 µM) was 0.491, the relative viability ([1]; first compound 0.1265 µM) was 0.428 and the relative viability ([1]; first compound 0.4 µM) was 0.462. The relative viability ([1]; first compound 1.265 µM) was 0.417, the relative viability ([1]; first compound 4 µM) was 0.338 and the relative viability ([2]; first compound 0.04 µM) was 0.171. The relative viability ([2]; first compound 0.1265 µM) was 0.178, the relative viability ([2]; first compound 0.4 µM) was 0.211 and the relative viability ([2]; first compound 1.265 µM) was 0.175. For the same cell line, the relative viability ([2]; first compound 4 µM) was 0.145, the relative viability (Salubrinal + Vorinostat; first compound 0.08 µM) was 0.751 and the relative viability (Salubrinal + Vorinostat; first compound 0.253 µM) was 0.739. For the same cell line, the relative viability (Salubrinal + Vorinostat; first compound 0.8 µM) was 1.04, the relative viability (Salubrinal + Vorinostat; first compound 2.53 µM) was 0.939 and the relative viability (Salubrinal + Vorinostat; first compound 8 µM) was 0.656. It also gave a relative viability (Salubrinal + Pictilisib; first compound 0.08 µM) of 0.261, a relative viability (Salubrinal + Pictilisib; first compound 0.253 µM) of 0.162 and a relative viability (Salubrinal + Pictilisib; first compound 0.8 µM) of 0.2. The relative viability (Salubrinal + Pictilisib; first compound 8 µM) was 0.181.

Work on LCLC-103H yielded a relative viability ([1]; first compound 0.04 µM) of 0.752, a relative viability ([1]; first compound 0.1265 µM) of 0.748 and a relative viability ([1]; first compound 0.4 µM) of 0.778. The relative viability ([1]; first compound 1.265 µM) was 0.743, the relative viability ([1]; first compound 4 µM) was 0.739 and the relative viability ([2]; first compound 0.04 µM) was 0.503. It also gave a relative viability ([2]; first compound 0.1265 µM) of 0.51, a relative viability ([2]; first compound 0.4 µM) of 0.5 and a relative viability ([2]; first compound 1.265 µM) of 0.467. It also gave a relative viability ([2]; first compound 4 µM) of 0.494, a relative viability (Salubrinal + Vorinostat; first compound 0.08 µM) of 0.725 and a relative viability (Salubrinal + Vorinostat; first compound 0.253 µM) of 0.716. For the same cell line, the relative viability (Salubrinal + Vorinostat; first compound 0.8 µM) was 0.891, the relative viability (Salubrinal + Vorinostat; first compound 2.53 µM) was 0.714 and the relative viability (Salubrinal + Vorinostat; first compound 8 µM) was 0.748. The relative viability (Salubrinal + Pictilisib; first compound 0.08 µM) was 0.591, the relative viability (Salubrinal + Pictilisib; first compound 0.253 µM) was 0.599 and the relative viability (Salubrinal + Pictilisib; first compound 0.8 µM) was 0.743. It also gave a relative viability (Salubrinal + Pictilisib; first compound 2.53 µM) of 0.562 and a relative viability (Salubrinal + Pictilisib; first compound 8 µM) of 0.535.

For LK-2, the relative viability ([1]; first compound 0.04 µM) was 0.707, the relative viability ([1]; first compound 0.1265 µM) was 0.778 and the relative viability ([1]; first compound 0.4 µM) was 0.706. The relative viability ([1]; first compound 1.265 µM) was 0.757, the relative viability ([1]; first compound 4 µM) was 0.672 and the relative viability ([2]; first compound 0.04 µM) was 0.252. For the same cell line, the relative viability ([2]; first compound 0.1265 µM) was 0.297, the relative viability ([2]; first compound 4 µM) was 0.191 and the relative viability (Salubrinal + Vorinostat; first compound 0.08 µM) was 0.257. It also gave a relative viability (Salubrinal + Vorinostat; first compound 0.253 µM) of 0.279, a relative viability (Salubrinal + Vorinostat; first compound 0.8 µM) of 0.356 and a relative viability (Salubrinal + Vorinostat; first compound 2.53 µM) of 0.395. It also gave a relative viability (Salubrinal + Vorinostat; first compound 8 µM) of 0.325, a relative viability (Salubrinal + Pictilisib; first compound 0.08 µM) of 0.59 and a relative viability (Salubrinal + Pictilisib; first compound 0.253 µM) of 0.541. It also gave a relative viability (Salubrinal + Pictilisib; first compound 0.8 µM) of 0.666, a relative viability (Salubrinal + Pictilisib; first compound 2.53 µM) of 0.512 and a relative viability (Salubrinal + Pictilisib; first compound 8 µM) of 0.575.

Reference: the supplement of paper PMC10307832
